This is an account of results in patent US12643892B2, “Pyridazinone compounds for the treatment of neuromuscular diseases” (Edgewise Therapeutics, Inc., priority 2020, dated 2026).

Usually IC50 stands for the midpoint of a concentration-inhibition curve. Higher therefore signals weaker potency.

Each structure is given as a SMILES string.

The target of one assay is Skeletal Myofibril ATPase (Rabbit Psoas myofibrils). In words: Skeletal Myofibril ATPase Assay. Format: biochemical. The conditions noted are these: PK/LDH-coupled NADH absorbance at 340 nm. The method, boiled down: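 Rabbit psoas myofibril ATPase read through a PK-LDH coupled system, as NADH loss at 340 nm every 1.5-2 min for 1 h, in PIPES/CaCl2/EGTA pCa buffer at pH 7.0. Absorbance change normalized to 1% DMSO vehicle (100%) and no change (0%). IC50 from a four-parameter logistic fit with bottom constrained ≥0.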
For the molecule `Cc1ccc(-c2ccc(=O)n(CC(=O)NCc3ccccc3F)n2)s1` [Compound 34, N-(2-fluorobenzyl)-2-(3-(5-methylthiophen-2-yl)-6-oxopyridazin-1(6H)-yl)acetamide], the concentration for half-maximal inhibition (IC50) was no more than 10 µM. Still for that read-out and setting: the figure for `COc1cccc(-c2noc(-c3ccc(=O)n(Cc4cccnc4)c3)n2)c1` [Compound 101, 5-(3-(3-methoxyphenyl)-1,2,4-oxadiazol-5-yl)-1-(pyridin-3-ylmethyl)pyridin-2(1H)-one] is no more than 10 µM. The same measure, in the same setting: the figure for `COc1ccc(NC(=O)Cn2nc(-c3cccs3)ccc2=O)cc1` [Compound 45, N-(4-methoxyphenyl)-2-(6-oxo-3-(thiophen-2-yl)pyridazin-1(6H)-yl)acetamide] is 10 to 100 µM; for `O=c1ccc(-c2cccs2)nn1Cc1cccc(F)c1` [Compound 57, 2-(3-fluorobenzyl)-6-(thiophen-2-yl)pyridazin-3(2H)-one] it is 10 to 100 µM; for `CCNC(=O)Cn1nc(-c2nc(-c3cccc(Cl)c3F)no2)ccc1=O` [Compound 3, 2-(3-(3-(3-chloro-2-fluoropheny)-1,2,4-oxadiazol-5-yl)-6-oxopyridazin-1(6H)-yl)-N-ethylacetamide] it is no more than 10 µM. Still for that read-out and setting: the figure for `Cc1cccc(-c2noc(-c3ccc(=O)n(Cc4cncc(Cl)c4)c3)n2)c1` [Compound 90, 1-((5-chloropyridin-3-yl)methyl)-5-(3-(m-tolyl)-1,2,4-oxadiazol-5-yl)pyridin-2(1H)-one] is no more than 10 µM; for `Cc1cccc(-c2noc(-c3ccc(=O)n(Cc4ccc(C(F)(F)F)nc4)c3)n2)c1` [Compound 114, 5-(3-(m-tolyl)-1,2,4-oxadiazol-5-yl)-l-((6-(trifluoromethyl)pyridin-3-yl)methyl)pyridin-2(1H)-one] it is greater than 120 µM; for `O=c1ccc(-c2nc(-c3cncc(Cl)c3)no2)cn1Cc1cccnc1` [Compound 99, 5-(3-(5-chloropyridin-3-yl)-1,2,4-oxadiazol-5-yl)-1-(pyridin-3-ylmethyl)pyridin-2(1H)-one] it is no more than 10 µM. `Cc1cccc(-c2noc(-c3ccc(=O)n(Cc4ccc(C)nc4)c3)n2)c1` [Compound 96, 1-((6-methylpyridin-3-yl)methyl)-5-(3-(m-tolyl)-1,2,4-oxadiazol-5-yl)pyridin-2(1H)-one] yielded a concentration for half-maximal inhibition (IC50) of no more than 10 µM. Same read-out and setting: the figure for `COc1ncccc1Cn1cc(-c2nc(-c3cccc(C)c3)no2)ccc1=O` [Compound 121, 1-((2-methoxypyridin-3-yl)methyl)-5-(3-(m-tolyl)-1,2,4-oxadiazol-5-yl)pyridin-2(1H)-one] is greater than 120 µM; for `Cc1noc(-c2ccc(=O)n(Cc3ccc(F)cc3)n2)n1` [Compound 69, 2-(4-fluorobenzyl)-6-(3-methyl-1,2,4-oxadiazol-5-yl)pyridazin-3(2H)-one] it is 10 to 100 µM; for `COc1ccc(Cn2cc(-c3nc(-c4cccc(C)c4)no3)ccc2=O)cn1` [Compound 88, 1-((6-methoxypyridin-3-yl)methyl)-5-(3-(m-tolyl)-1,2,4-oxadiazol-5-yl)pyridin-2(1H)-one] it is no more than 10 µM. In the case of `CCCn1nc(-c2nc(COc3ccccc3)no2)ccc1=O` [Compound 77, 6-(3-(phenoxymethyl)-1,2,4-oxadiazol-5-yl)-2-propylpyridazin-3(2H)-one], the IC50 was in the range of 10 to 100 µM.

Molecule `Cc1cccc(-c2noc(-c3ccc(=O)n(Cc4cncc(C#N)c4)c3)n2)c1` [Compound 98, 5-((2-oxo-5-(3-(m-tolyl)-1,2,4-oxadiazol-5-yl)pyridin-1(2H)-yl)methyl)nicotinoni trile] showed an IC50 of no more than 10 µM. Still for that read-out and setting: the figure for `Cc1ccc(-c2ccc(=O)n(CC(=O)N(C)c3ccccc3)n2)s1` [Compound 38, N-methyl-2-(3-(5-methylthiophen-2-yl)-6-oxopyridazin-1(6H)-yl)-N -phenylacetamide] is 10 to 100 µM. Still for that read-out and setting: the figure for `Cc1cccc(-c2noc(-c3ccc(=O)n(Cc4cccnc4)c3)n2)c1` [Compound 84, 1-(pyridin-3-ylmethyl)-5-(3-(m-tolyl)-1,2,4-oxadiazol-5-yl)pyridin-2(1H)-one] is no more than 10 µM; for `CCNC(=O)Cn1nc(-c2nc(-c3cccc(F)c3)no2)ccc1=O` [Compound 2, N-ethyl-2-(3-(3-(3-fluorophenyl)-1,2,4-oxadiazol-5-yl)-6-oxopyridazin-1(6H)-yl)acetamide] it is no more than 10 µM. With `Cc1ccc(-c2ccc(=O)n(CC(=O)NC(C)C)n2)s1` [Compound 33, N-isopropyl-2-(3-(5-methylthiophen-2-yl)-6-oxopyridazin-1(6H)-yl)acetamide], the IC50 was no more than 10 µM.

As for `CCNC(=O)Cn1nc(-c2nc(-c3ccccc3)no2)ccc1=O` [Compound 16, N-ethyl-2-(6-oxo-3-(3-phenyl-1,2,4-oxadiazol-5-yl)pyridazin-1(6H)-yl)acetamide], the IC50 is no more than 10 µM. Same read-out and setting: the figure for `O=c1ccc(-c2cccs2)nn1Cc1ccccc1F` [Compound 58, 2-(2-fluorobenzyl)-6-(thiophen-2-yl)pyridazin-3(2H)-one] is greater than 100 µM.

In turn, `CCNC(=O)Cn1nc(-c2nnc(-c3cccc(Cl)c3)s2)ccc1=O` [Compound 24, 2-(3-(5-(3-chlorophenyl)-1,3,4-thiadiazol-2-yl)-6-oxopyridazin-1(6H)-yl)-N-ethylacetamide] registered an IC50 of no more than 10 µM.

`CCNC(=O)Cn1nc(-c2nc(-c3cccnc3)no2)ccc1=O` [Compound 13, N-ethyl-2-(6-oxo-3-(3-(pyridin-3-yl)-1,2,4-oxadiazol-5-yl)pyridazin-1(6H)-yl)acetamide] yielded an IC50 of 10 to 100 µM. Still for that read-out and setting: the figure for `CCNC(=O)Cn1nc(-c2nnc(-c3cncc(C(F)(F)F)c3)s2)ccc1=O` [Compound 19, N-ethyl-2-(6-oxo-3-(5-(5-(trifluoromethyl)pyridin-3-yl)-1,3,4-thiadiazol-2-yl)pyridazin-1(6H)-yl)acetamide] is no more than 10 µM.

The subject of a further assay is embryos from zebrafish model of DMD.
Assay: not given
The conditions noted are these: FIG. 2, Li and Amer, PLoSONE, 2015; cited from earlier work.
For `Cc1ccc(S(=O)(=O)NCc2ccccc2)cc1` [BTS, N-benzyl-p-tolyl-sulfonamide], the “protection of muscles from pathological muscle derangement” value was “protect muscles from pathological muscle derangement”.
